Where “and” joins values, the source holds several entries; their conditions need not be identical. Equal values may be shown once. Inconclusive results and toxic doses are left out. Cut-off read from the data, not from the text of the source: active = T/C of 150% or more; inactive = T/C below 125%.
Tested on: L1210 leukemia ip in BDF1 mice, survival T/C
Assay: NCI In Vivo Anticancer Drug Screen. Data for tumor model L1210 Leukemia (intraperitoneal) in B6D2F1 (BDF1) mice
Details: endpoint: mean survival time, higher = longer survival
How it was run: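 Mice bearing the transplanted tumor received compound or vehicle. Survival of the treated group was divided by that of the vehicle-treated control group to give the ratio.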

[1] = dose: 100.0 mg/kg/injection, schedule: Q04DX003 (ip), vehicle: saline
[2] = dose: 200.0 mg/kg/injection, schedule: Q04DX003 (ip), vehicle: saline
[3] = dose: 400.0 mg/kg/injection, schedule: Q04DX003 (ip), vehicle: saline
[4] = dose: 50.0 mg/kg/injection, schedule: Q04DX003 (ip), vehicle: Klucel (hydroxypropylcellulose) (HPC)
[5] = dose: 100.0 mg/kg/injection, schedule: Q04DX003 (ip), vehicle: Klucel (hydroxypropylcellulose) (HPC)
[6] = dose: 50.0 mg/kg/injection, schedule: Q01DX009 (ip), vehicle: acetone
[7] = dose: 100.0 mg/kg/injection, schedule: Q01DX009 (ip), vehicle: acetone
[8] = dose: 200.0 mg/kg/injection, schedule: Q04DX003 (ip), vehicle: Klucel (hydroxypropylcellulose) (HPC)
[9] = dose: 400.0 mg/kg/injection, schedule: Q04DX003 (ip), vehicle: Klucel (hydroxypropylcellulose) (HPC)
[10] = dose: 100.0 mg/kg/injection, schedule: Q01DX009 (ip), vehicle: saline with Tween-80
[11] = dose: 200.0 mg/kg/injection, schedule: Q01DX009 (ip), vehicle: saline with Tween-80
[12] = dose: 400.0 mg/kg/injection, schedule: Q01DX009 (ip), vehicle: saline with Tween-80

Measured: T/C

ClCCN(CCCl)c1ccc(CNCCCNCc2ccc(N(CCCl)CCCl)cc2)cc1
inactive: dose: 5.0 mg/kg/injection, schedule: Q01DX001 (ip), vehicle: carboxymethylcellulose (CMC) 105 % of control | dose: 10.0 mg/kg/injection, schedule: Q01DX001 (ip), vehicle: carboxymethylcellulose (CMC) 110 % of control | dose: 20.0 mg/kg/injection, schedule: Q01DX001 (ip), vehicle: carboxymethylcellulose (CMC) 103 % of control

N#CCCCC[P+](c1ccccc1)(c1ccccc1)c1ccccc1
inactive: dose: 25.0 mg/kg/injection, schedule: Q01DX009 (ip), vehicle: saline 107 % of control | dose: 50.0 mg/kg/injection, schedule: Q01DX009 (ip), vehicle: saline 93 % of control

CCN=C(N)C(N)=NCC
inactive: dose: 100.0 mg/kg/injection, schedule: Q01DX009 (ip), vehicle: saline 94 % of control | [1] 103 % of control | dose: 200.0 mg/kg/injection, schedule: Q01DX009 (ip), vehicle: saline 94 % of control | [2] 100 % of control | dose: 400.0 mg/kg/injection, schedule: Q01DX009 (ip), vehicle: saline 89 % of control | [3] 97 % of control

O=C1C(Br)=CC(=NBr)C=C1Br
inactive: dose: 25.0 mg/kg/injection, schedule: Q04DX003 (ip), vehicle: Klucel (hydroxypropylcellulose) (HPC) 101 % of control | [4] 101 % of control | [5] 97 % of control

BrCc1cccc2ccccc12
inactive: dose: 25.0 mg/kg/injection, schedule: Q01DX009 (ip), vehicle: acetone 96 % of control | [6] 95 % of control | dose: 50.0 mg/kg/injection, schedule: Q04DX003 (ip), vehicle: saline 90 % of control | dose: 100.0 mg/kg/injection, schedule: Q01DX001 (ip), vehicle: saline 98 % of control | [7] 95 % of control | [1] 87 % of control | dose: 200.0 mg/kg/injection, schedule: Q01DX001 (ip), vehicle: saline 102 % of control

Cc1cc(C)c(C(C)C)cc1C(C)C
inactive: [1] 100 % of control | [2] 100 % of control | [3] 90 % of control

O=[N+]([O-])/C=C/c1ccc(F)cc1
inactive: dose: 75.0 mg/kg/injection, schedule: Q01DX001 (ip), vehicle: alcohol 100 % of control

O=C1C(=O)c2ccccc2C=C1C1CCCCC1
inactive: dose: 50.0 mg/kg/injection, schedule: Q01DX001 (ip), vehicle: carboxymethylcellulose (CMC) 97 % of control | dose: 100.0 mg/kg/injection, schedule: Q01DX001 (ip), vehicle: carboxymethylcellulose (CMC) 114 % of control | dose: 200.0 mg/kg/injection, schedule: Q01DX001 (ip), vehicle: carboxymethylcellulose (CMC) 97 % of control | dose: 400.0 mg/kg/injection, schedule: Q01DX001 (ip), vehicle: carboxymethylcellulose (CMC) 107 % of control

C[C@@H]1CC2=CC(=O)C=C[C@]2(C)[C@H]2CC[C@@]3(C)[C@@H](CC[C@]3(C)O)[C@H]12
inactive: dose: 100.0 mg/kg/injection, schedule: Q01DX001 (sc), vehicle: steriod suspending solution 104 % of control | dose: 200.0 mg/kg/injection, schedule: Q01DX001 (sc), vehicle: steriod suspending solution 106 % of control | dose: 400.0 mg/kg/injection, schedule: Q01DX001 (sc), vehicle: steriod suspending solution 97 % of control

CN(C)N=Nc1ccc(C(=O)N/N=C/c2cccc([N+](=O)[O-])c2)cc1
inactive: [4] 92 % of control | [5] 106 % of control | [8] 92 % of control

O=C(O)C1CC1C(=O)c1ccccc1 (configuration not stated)
inactive: dose: 25.0 mg/kg/injection, schedule: Q01DX001 (ip), vehicle: Klucel (hydroxypropylcellulose) (HPC) 98 % of control | dose: 50.0 mg/kg/injection, schedule: Q01DX001 (ip), vehicle: Klucel (hydroxypropylcellulose) (HPC) 97 % of control | dose: 100.0 mg/kg/injection, schedule: Q01DX001 (ip), vehicle: Klucel (hydroxypropylcellulose) (HPC) 96 % of control and 98 % of control | dose: 200.0 mg/kg/injection, schedule: Q01DX001 (ip), vehicle: Klucel (hydroxypropylcellulose) (HPC) 86 % of control | dose: 400.0 mg/kg/injection, schedule: Q01DX001 (ip), vehicle: Klucel (hydroxypropylcellulose) (HPC) 103 % of control

C1OCC2(CO1)COCOC2
inactive: [6] 95 % of control | [7] 91 % of control | [1] 95 % of control | dose: 200.0 mg/kg/injection, schedule: Q01DX009 (ip), vehicle: acetone 93 % of control | [2] 103 % of control | [3] 105 % of control

O=S(=O)(/N=C1C=C(N2CCOCC2)/C(=N/S(=O)(=O)c2ccccc2)C=C/1N1CCOCC1)c1ccccc1
inactive: dose: 75.0 mg/kg/injection, schedule: Q04DX003 (ip), vehicle: Klucel (hydroxypropylcellulose) (HPC) 97 % of control | dose: 150.0 mg/kg/injection, schedule: Q04DX003 (ip), vehicle: Klucel (hydroxypropylcellulose) (HPC) 89 % of control | dose: 300.0 mg/kg/injection, schedule: Q04DX003 (ip), vehicle: Klucel (hydroxypropylcellulose) (HPC) 100 % of control

COC(=O)c1ccc2ccccc2n1
inactive: dose: 37.5 mg/kg/injection, schedule: Q04DX003 (ip), vehicle: saline 112 % of control | dose: 75.0 mg/kg/injection, schedule: Q01DX001 (ip), vehicle: saline 112 % of control | dose: 75.0 mg/kg/injection, schedule: Q04DX003 (ip), vehicle: saline 93 % of control | dose: 150.0 mg/kg/injection, schedule: Q01DX001 (ip), vehicle: saline 86 % of control | dose: 150.0 mg/kg/injection, schedule: Q04DX003 (ip), vehicle: saline 93 % of control

CC(C)=C1C2CCC1C(CO)C2CO (configuration not stated)
inactive: dose: 100.0 mg/kg/injection, schedule: Q01DX009 (ip), vehicle: Klucel (hydroxypropylcellulose) (HPC) 95 % of control | [5] 102 % of control | dose: 200.0 mg/kg/injection, schedule: Q01DX009 (ip), vehicle: Klucel (hydroxypropylcellulose) (HPC) 102 % of control | [8] 100 % of control | dose: 400.0 mg/kg/injection, schedule: Q01DX009 (ip), vehicle: Klucel (hydroxypropylcellulose) (HPC) 104 % of control | [9] 96 % of control

O=C(c1ccccc1)C1OC1c1ccc([N+](=O)[O-])cc1 (configuration not stated)
inactive: dose: 100.0 mg/kg/injection, schedule: Q01DX001 (ip), vehicle: saline with Tween-80 91 % of control | dose: 100.0 mg/kg/injection, schedule: Q04DX003 (ip), vehicle: saline with Tween-80 100 % of control | dose: 200.0 mg/kg/injection, schedule: Q01DX001 (ip), vehicle: saline with Tween-80 88 % of control | dose: 200.0 mg/kg/injection, schedule: Q04DX003 (ip), vehicle: saline with Tween-80 103 % of control | dose: 400.0 mg/kg/injection, schedule: Q01DX001 (ip), vehicle: saline with Tween-80 88 % of control | dose: 400.0 mg/kg/injection, schedule: Q04DX003 (ip), vehicle: saline with Tween-80 100 % of control

NC(=O)c1ncc(-c2ccc(Cl)cc2)[nH]c1=O
inactive: [10] 91 % of control | [11] 97 % of control | [12] 97 % of control

CC1CCCCN1C(=O)CCCCl (configuration not stated)
inactive: dose: 100.0 mg/kg/injection, schedule: Q04DX002 (ip), vehicle: saline 111 % of control | dose: 200.0 mg/kg/injection, schedule: Q04DX002 (ip), vehicle: saline 101 % of control | dose: 400.0 mg/kg/injection, schedule: Q04DX002 (ip), vehicle: saline 88 % of control

CNC(=O)c1cc(NC(=O)Nc2cccc(C3=NCCN3)c2)cc(NC(=O)Nc2cccc(C3=NCCN3)c2)c1
inactive: dose: 15.0 mg/kg/injection, schedule: Q01DX Z (ip), vehicle: saline 114 % of control | dose: 30.0 mg/kg/injection, schedule: Q01DX Z (oral), vehicle: saline 103 % of control | dose: 60.0 mg/kg/injection, schedule: Q01DX Z (ip), vehicle: saline 120 % of control | dose: 60.0 mg/kg/injection, schedule: Q01DX Z (oral), vehicle: saline 119 % of control | dose: 120.0 mg/kg/injection, schedule: Q01DX Z (oral), vehicle: saline 101 % of control | dose: 240.0 mg/kg/injection, schedule: Q01DX Z (oral), vehicle: saline 95 % of control

CCn1c(C)nc2cc(N=Cc3ccc(N(CCCl)CCCl)cc3)ccc21
inactive: dose: 100.0 mg/kg/injection, schedule: Q04DX002 (ip), vehicle: Klucel (hydroxypropylcellulose) (HPC) 113 % of control | dose: 200.0 mg/kg/injection, schedule: Q04DX002 (ip), vehicle: Klucel (hydroxypropylcellulose) (HPC) 106 % of control | dose: 400.0 mg/kg/injection, schedule: Q04DX002 (ip), vehicle: Klucel (hydroxypropylcellulose) (HPC) 106 % of control

CC(O)c1cccc([N+](=O)[O-])c1 (configuration not stated)
inactive: [10] 104 % of control | [11] 94 % of control | [12] 90 % of control

CC(=O)NC(=O)Nc1ccccc1
inactive: [5] 94 % of control | [8] 103 % of control | [9] 95 % of control

— PubChem BioAssay AID248 (DTP/NCI, 2004)
